Results as given in patent US9833497B2, “Human originated EGF domain proteins and use of the same” (CHENGDU SOURCEBIO LIMITED-LIABILITY COMPANY, priority 2013, dated 2017).

Tests used:
Format in all cases: cell-based
Proteus vulgaris = test: MIC against Gram-negative bacteria: Proteus vulgaris; conditions: for MIC against P. vulgaris: Proteus vulgaris
How it was run: (§1)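 MIC, the lowest recombinant protein concentration giving no bacterial growth, found by two-fold serial dilution of human EGF-domain proteins in triplicate. Inoculum 5×10^5 CFU/mL in LB from cultures at McFarland 0.5; plates incubated at 37° C, 175 rpm shaking.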

E. coli DH5α = test: Antibacterial activity: MIC and growth curve against E. coli DH5α in 96-well plate; conditions: minimal inhibitory concentration against E. coli DH5α; 96-well plate, 5×10^5 CFU/mL, 37° C., judged after 8 h
How it was run: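 Log-phase bacteria (OD600 ~0.5) resuspended in LB at 5×10^5 CFU/mL, exposed to recombinant protein at 50, 25, 12.5 μg/mL final in triplicate, 37 °C shaking at 175 rpm. OD600 read every 30 min; MIC is lowest concentration showing no growth.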

Serratia marcescens = test: MIC against Gram-negative bacteria: Serratia marcescens; conditions: for MIC against S. marcescens: Serratia marcescens
How it was run: as §1

Proteus mirabilis = test: MIC against Gram-negative bacteria: Proteus mirabilis; conditions: for MIC against P. mirabilis: Proteus mirabilis
How it was run: as §1

Enterobacter cloacae = test: MIC against Gram-negative bacteria: Enterobacter cloacae; conditions: for MIC against E. cloacae: Enterobacter cloacae
How it was run: as §1

Aeromonas hydrophila = test: MIC against Gram-negative bacteria: Aeromonas hydrophila; conditions: for MIC against A. hydrophila: Aeromonas hydrophila
How it was run: as §1

Moraxella catarrhalis = test: MIC against Gram-negative bacteria: Moraxella catarrhalis; conditions: for MIC against M. catarrhalis: Moraxella catarrhalis
How it was run: as §1

Klebsiella pneumonia = test: MIC against Gram-negative bacteria: Klebsiella pneumonia; conditions: for MIC against K. pneumonia: Klebsiella pneumonia
How it was run: as §1

E. coli BL21 = test: MIC against Gram-negative bacteria: E. coli BL21
How it was run: as §1

Citrobacter diversus = test: MIC against Gram-negative bacteria: Citrobacter diversus; conditions: for MIC against C. diversus: Citrobacter diversus
How it was run: as §1

Pseudomonas aeruginosa = test: MIC against Gram-negative bacteria: Pseudomonas aeruginosa; conditions: for MIC against P. aeruginosa: Pseudomonas aeruginosa
How it was run: as §1

[1] = 5×10^5 CFU/mL, 10 h cultivation at 37° C.
[2] = E. coli BL21, 5×10^5 CFU/mL, 10 h cultivation at 37° C.
[3] = 96-well plate, 5×10^5 CFU/mL, 37° C., 10 h
[4] = E. coli BL21, 96-well plate, 5×10^5 CFU/mL, 37° C., 10 h

In the case of “PRT1463 (CDCDTAGSLPGTVCNAKTGQCICKPNVEGRQCNKCLEGNFYLRQNNSFLCLP; listed as Homo sapiens)”, the “MIC against P. vulgaris” value (Proteus vulgaris; [1]) is reported as 25 µg/mL, the MIC (E. coli DH5α) is reported as 50 µg/mL and the “MIC against S. marcescens” value (Serratia marcescens; [1]) is reported as 12.5 µg/mL. The “MIC against P. mirabilis” value (Proteus mirabilis; [1]) was 12.5 µg/mL, the “MIC against E. cloacae” value (Enterobacter cloacae; [1]) was 50 µg/mL and the “MIC against A. hydrophila” value (Aeromonas hydrophila; [1]) was 12.5 µg/mL. For the same substance, the “MIC against M. catarrhalis” value (Moraxella catarrhalis; [1]) was 25 µg/mL, the “MIC against K. pneumonia” value (Klebsiella pneumonia; [1]) was 25 µg/mL and the “MIC against E. coli BL21” value (E. coli BL21; [2]) was 25 µg/mL. For the same substance, the “MIC against C. diversus” value (Citrobacter diversus; [1]) was 50 µg/mL and the “MIC against P. aeruginosa” value (Pseudomonas aeruginosa; [1]) was 12.5 µg/mL.

“PRT1235 (IGPQCEEMCNGQGSCINGTKCICDPGYSGPTCK; listed as Homo sapiens)” was tested, and the “MIC against P. vulgaris” value (Proteus vulgaris; [3]) was 50 µg/mL, the MIC (E. coli DH5α) was 12.5 µg/mL and the “MIC against S. marcescens” value (Serratia marcescens; [3]) was 12.5 µg/mL. For the same substance, the “MIC against P. mirabilis” value (Proteus mirabilis; [3]) was 12.5 µg/mL, the “MIC against E. cloacae” value (Enterobacter cloacae; [3]) was 25 µg/mL and the “MIC against A. hydrophila” value (Aeromonas hydrophila; [3]) was 12.5 µg/mL. For the same substance, the “MIC against M. catarrhalis” value (Moraxella catarrhalis; [3]) was 12.5 µg/mL, the “MIC against K. pneumonia” value (Klebsiella pneumonia; [3]) was 12.5 µg/mL and the “MIC against E. coli BL21” value (E. coli BL21; [4]) was 12.5 µg/mL. The “MIC against C. diversus” value (Citrobacter diversus; [3]) was 12.5 µg/mL and the “MIC against P. aeruginosa” value (Pseudomonas aeruginosa; [3]) was 25 µg/mL.

In the case of “PRT1324 (PITSCLEQTGKCHPLASCQSTSSGVWSCVCQEGYEGDGFL; listed as Homo sapiens)”, the “MIC against P. vulgaris” value (Proteus vulgaris; [3]) is reported as 12.5 µg/mL, the MIC (E. coli DH5α) is reported as 12.5 µg/mL and the “MIC against S. marcescens” value (Serratia marcescens; [3]) is reported as 25 µg/mL. For the same substance, the “MIC against P. mirabilis” value (Proteus mirabilis; [3]) was 25 µg/mL, the “MIC against E. cloacae” value (Enterobacter cloacae; [3]) was 12.5 µg/mL and the “MIC against A. hydrophila” value (Aeromonas hydrophila; [3]) was 50 µg/mL. The “MIC against M. catarrhalis” value (Moraxella catarrhalis; [3]) was 12.5 µg/mL, the “MIC against K. pneumonia” value (Klebsiella pneumonia; [3]) was 25 µg/mL and the “MIC against E. coli BL21” value (E. coli BL21; [4]) was 25 µg/mL. For the same substance, the “MIC against C. diversus” value (Citrobacter diversus; [3]) was 25 µg/mL and the “MIC against P. aeruginosa” value (Pseudomonas aeruginosa; [3]) was 50 µg/mL.

“PRT793 (YGEACQQICSCQNGADCDSVTGKCTCAPGFKGIDCS; listed as Homo sapiens)” was tested, and the “MIC (μg/mL) P. vulgaris” value (Proteus vulgaris; P. vulgaris, 10 h cultivation at 37° C., 5×10^5 CFU/mL) was 50 µg/mL, the MIC (E. coli DH5α) was 25 µg/mL and the “MIC (μg/mL) S. marcescens” value (Serratia marcescens; S. marcescens, 10 h cultivation at 37° C., 5×10^5 CFU/mL) was 12.5 µg/mL. The “MIC (μg/mL) P. mirabilis” value (Proteus mirabilis; P. mirabilis, 10 h cultivation at 37° C., 5×10^5 CFU/mL) was 25 µg/mL, the “MIC (μg/mL) E. cloacae” value (Enterobacter cloacae; E. cloacae, 10 h cultivation at 37° C., 5×10^5 CFU/mL) was 25 µg/mL and the “MIC (μg/mL) A. hydrophila” value (Aeromonas hydrophila; A. hydrophila, 10 h cultivation at 37° C., 5×10^5 CFU/mL) was 50 µg/mL. For the same substance, the “MIC (μg/mL) M. catarrhalis” value (Moraxella catarrhalis; M. catarrhalis, 10 h cultivation at 37° C., 5×10^5 CFU/mL) was 12.5 µg/mL, the “MIC (μg/mL) K. pneumonia” value (Klebsiella pneumonia; K. pneumonia, 10 h cultivation at 37° C., 5×10^5 CFU/mL) was 12.5 µg/mL and the “MIC (μg/mL) E. coli BL21” value (E. coli BL21; E. coli BL21, 10 h cultivation at 37° C., 5×10^5 CFU/mL) was 12.5 µg/mL. The “MIC (μg/mL) C. diversus” value (Citrobacter diversus; C. diversus, 10 h cultivation at 37° C., 5×10^5 CFU/mL) was 25 µg/mL and the “MIC (μg/mL) P. aeruginosa” value (Pseudomonas aeruginosa; P. aeruginosa, 10 h cultivation at 37° C., 5×10^5 CFU/mL) was 50 µg/mL.

With “PRT989 (NIDDCATAVCFHGATCHDRVASFYCACPMGKTGLLCH; listed as Homo sapiens)” the MIC (Proteus vulgaris; P. vulgaris, 10 h cultivation at 37° C.) was 12.5 µg/mL, the MIC (E. coli DH5α) was 50 µg/mL and the MIC (Serratia marcescens; S. marcescens, 10 h cultivation at 37° C.) was 25 µg/mL. It also gave an MIC (Proteus mirabilis; P. mirabilis, 10 h cultivation at 37° C.) of 12.5 µg/mL, an MIC (Enterobacter cloacae; E. cloacae, 10 h cultivation at 37° C.) of 12.5 µg/mL and an MIC (Aeromonas hydrophila; A. hydrophila, 10 h cultivation at 37° C.) of 12.5 µg/mL. It also gave an MIC (Moraxella catarrhalis; M. catarrhalis, 10 h cultivation at 37° C.) of 100 µg/mL, an MIC (Klebsiella pneumonia; K. pneumonia, 10 h cultivation at 37° C.) of 12.5 µg/mL and an MIC (E. coli BL21; E. coli BL21, 10 h cultivation at 37° C.) of 12.5 µg/mL. The MIC (Citrobacter diversus; C. diversus, 10 h cultivation at 37° C.) was 100 µg/mL and the MIC (Pseudomonas aeruginosa; P. aeruginosa, 10 h cultivation at 37° C.) was 50 µg/mL.

For “PRT708 (QYYVCHHYCVNSESCTIGDDGSVECVCPTRYEGPKCE; listed as Homo sapiens)”, the “MIC P. vulgaris” value (Proteus vulgaris; [3]) was 12.5 µg/mL, the MIC (E. coli DH5α) was 50 µg/mL and the “MIC S. marcescens” value (Serratia marcescens; [3]) was 50 µg/mL. For the same substance, the “MIC P. mirabilis” value (Proteus mirabilis; [3]) was 50 µg/mL, the “MIC E. cloacae” value (Enterobacter cloacae; [3]) was 50 µg/mL and the “MIC A. hydrophila” value (Aeromonas hydrophila; [3]) was 12.5 µg/mL. The “MIC M. catarrhalis” value (Moraxella catarrhalis; [3]) was 12.5 µg/mL, the “MIC K. pneumonia” value (Klebsiella pneumonia; [3]) was 25 µg/mL and the “MIC E. coli BL21” value (E. coli BL21; [3]) was 25 µg/mL. The “MIC C. diversus” value (Citrobacter diversus; [3]) was 50 µg/mL and the “MIC P. aeruginosa” value (Pseudomonas aeruginosa; [3]) was 50 µg/mL.

For “PRT1443 (NHMPCPENLNGYCIHGKCEFIYSTQKASCRCESGYTGQHCE; listed as Homo sapiens)”, the “MIC against P. vulgaris” value (Proteus vulgaris; [1]) was 25 µg/mL, the MIC (E. coli DH5α) was 25 µg/mL and the “MIC against S. marcescens” value (Serratia marcescens; [1]) was 50 µg/mL. For the same substance, the “MIC against P. mirabilis” value (Proteus mirabilis; [1]) was 12.5 µg/mL, the “MIC against E. cloacae” value (Enterobacter cloacae; [1]) was 25 µg/mL and the “MIC against A. hydrophila” value (Aeromonas hydrophila; [1]) was 50 µg/mL. For the same substance, the “MIC against M. catarrhalis” value (Moraxella catarrhalis; [1]) was 25 µg/mL, the “MIC against K. pneumonia” value (Klebsiella pneumonia; [1]) was 12.5 µg/mL and the “MIC against E. coli BL21” value (E. coli BL21; [2]) was 50 µg/mL. For the same substance, the “MIC against C. diversus” value (Citrobacter diversus; [1]) was 25 µg/mL and the “MIC against P. aeruginosa” value (Pseudomonas aeruginosa; [1]) was 25 µg/mL.
